Experiments:
[1] = Crystal; visual observation
[2] = mn = molality of the nth substance listed, in mol/kg; conditions: for surface tension liquid-gas: Pendant drop shape; for electrical conductivity: 100 kPa, Liquid, Alternating current cell with electrodes

CCCCCCCCCCCCNC1O[C@H](CO)[C@@H](O[C@@H]2O[C@H](CO)[C@H](O)[C@H](O)[C@H]2O)[C@H](O)[C@H]1O (some centres undefined) [N-dodecyllactosylamine]
Conditions | Triple point temperature [K]
[1] | 398.65

CCCCCCCCCCCC[NH2+]C1O[C@H](CO)[C@@H](O[C@@H]2O[C@H](CO)[C@H](O)[C@H](O)[C@H]2O)[C@H](O)[C@H]1O.CCCCCCCCCCCC[NH2+]C1O[C@H](CO)[C@@H](O[C@@H]2O[C@H](CO)[C@H](O)[C@H](O)[C@H]2O)[C@H](O)[C@H]1O.O=C([O-])CCCCC(=O)[O-] (some centres undefined) [N-dodecyllactosylammonium hexanedioate] + O
[2]
Conditions | electrical conductivity [S/m] | surface tension liquid-gas [mN/m]
298.15 K, m1 = 0.0005 | – | 65.42
298.15 K, m1 = 0.001 | – | 57.54
298.15 K, m1 = 0.0015 | – | 52.44
298.15 K, m1 = 0.00159 | 0.00604 | –
298.15 K, m1 = 0.002 | – | 48.72
298.15 K, m1 = 0.0025 | – | 46.11
298.15 K, m1 = 0.003 | – | 43.65
298.15 K, m1 = 0.00317 | 0.0113 | –
298.15 K, m1 = 0.00396 | 0.0137 | –
298.15 K, m1 = 0.004 | – | 39.6
298.15 K, m1 = 0.00474 | 0.0159 | –
298.15 K, m1 = 0.005 | – | 36.39
298.15 K, m1 = 0.00552 | 0.0182 | –
298.15 K, m1 = 0.006 | – | 34.24
298.15 K, m1 = 0.0063 | 0.0212 | –
298.15 K, m1 = 0.007 | – | 33.1
298.15 K, m1 = 0.00707 | 0.023 | –
323.15 K, m1 = 0.0004 | – | 62.97
323.15 K, m1 = 0.0006 | – | 58.09
323.15 K, m1 = 0.001 | – | 52.58
323.15 K, m1 = 0.0014 | – | 47.88
323.15 K, m1 = 0.00159 | 0.00898 | –
323.15 K, m1 = 0.002 | – | 43.86
323.15 K, m1 = 0.0024 | – | 41.18
323.15 K, m1 = 0.003 | – | 38.37
323.15 K, m1 = 0.00317 | 0.0165 | –
323.15 K, m1 = 0.004 | – | 35.16
323.15 K, m1 = 0.00474 | 0.0258 | –
323.15 K, m1 = 0.005 | – | 32.73
323.15 K, m1 = 0.0063 | 0.0334 | –

CCCCCC(=O)[O-].CCCCCCCCCCCC[NH2+]C1O[C@H](CO)[C@@H](O[C@@H]2O[C@H](CO)[C@H](O)[C@H](O)[C@H]2O)[C@H](O)[C@H]1O (some centres undefined) [N-dodecyllactosylammonium hexanoate] + O
[2], 323.15 K
Conditions | electrical conductivity [S/m] | surface tension liquid-gas [mN/m]
m1 = 0.4 | 0.001851 | 58.74
m1 = 0.6 | – | 52.11
m1 = 0.79 | 0.00335 | –
m1 = 0.8 | – | 48.69
m1 = 1 | – | 45.57
m1 = 1.19 | 0.0048 | –
m1 = 1.57 | 0.00609 | –
m1 = 1.6 | – | 37.41
m1 = 1.96 | 0.00734 | –
m1 = 2 | – | 34.64
m1 = 2.34 | 0.00864 | –
m1 = 2.4 | – | 32.22
m1 = 2.72 | 0.00986 | –
m1 = 3 | – | 30.32
m1 = 3.1 | 0.01083 | –

CCCCCCCCCCCC[NH2+]C1O[C@H](CO)[C@@H](O[C@@H]2O[C@H](CO)[C@H](O)[C@H](O)[C@H]2O)[C@H](O)[C@H]1O.CCCCCCCCCCCC[NH2+]C1O[C@H](CO)[C@@H](O[C@@H]2O[C@H](CO)[C@H](O)[C@H](O)[C@H]2O)[C@H](O)[C@H]1O.O=C([O-])CC(=O)[O-] (some centres undefined) [N-dodecyllactosylammonium propanedioate] + O
[2]
Conditions | electrical conductivity [S/m] | surface tension liquid-gas [mN/m]
298.15 K, m1 = 0.0005 | – | 68.12
298.15 K, m1 = 0.001 | – | 61.14
298.15 K, m1 = 0.0015 | – | 55.99
298.15 K, m1 = 0.00159 | 0.00597 | –
298.15 K, m1 = 0.002 | – | 51.91
298.15 K, m1 = 0.0025 | – | 47.5
298.15 K, m1 = 0.003 | – | 44.9
298.15 K, m1 = 0.00317 | 0.0115 | –
298.15 K, m1 = 0.004 | – | 40.37
298.15 K, m1 = 0.00474 | 0.0168 | –
298.15 K, m1 = 0.005 | – | 35.39
298.15 K, m1 = 0.00552 | 0.0194 | –
298.15 K, m1 = 0.006 | – | 32.88
298.15 K, m1 = 0.0063 | 0.0227 | –
298.15 K, m1 = 0.007 | – | 30.63
298.15 K, m1 = 0.00707 | 0.0251 | –
298.15 K, m1 = 0.00784 | 0.0271 | –
298.15 K, m1 = 0.008 | – | 28.97
298.15 K, m1 = 0.00861 | 0.0288 | –
323.15 K, m1 = 0.0004 | – | 65.73
323.15 K, m1 = 0.0006 | – | 62.69
323.15 K, m1 = 0.0008 | – | 59.26
323.15 K, m1 = 0.001 | – | 56.85
323.15 K, m1 = 0.0014 | – | 52.69
323.15 K, m1 = 0.00159 | 0.00958 | –
323.15 K, m1 = 0.002 | – | 47.4
323.15 K, m1 = 0.0024 | – | 44.7
323.15 K, m1 = 0.003 | – | 41.32
323.15 K, m1 = 0.00317 | 0.0164 | –
323.15 K, m1 = 0.004 | – | 37.19
323.15 K, m1 = 0.00474 | 0.0257 | –
323.15 K, m1 = 0.005 | – | 33.3
323.15 K, m1 = 0.006 | – | 30.53
323.15 K, m1 = 0.0063 | 0.0329 | –
323.15 K, m1 = 0.007 | – | 28.43
323.15 K, m1 = 0.00784 | 0.0387 | –
323.15 K, m1 = 0.008 | – | 26.79

CCC(=O)[O-].CCCCCCCCCCCC[NH2+]C1O[C@H](CO)[C@@H](O[C@@H]2O[C@H](CO)[C@H](O)[C@H](O)[C@H]2O)[C@H](O)[C@H]1O (some centres undefined) [N-dodecyllactosylammonium propanoate] + O
[2], 323.15 K
Conditions | electrical conductivity [S/m] | surface tension liquid-gas [mN/m]
m1 = 0.2 | 0.001042 | 67.63
m1 = 0.3 | – | 63.03
m1 = 0.4 | 0.001921 | 58.77
m1 = 0.5 | – | 53.31
m1 = 0.6 | 0.00272 | 50.73
m1 = 0.7 | – | 45.91
m1 = 0.79 | 0.00355 | –
m1 = 0.8 | – | 42.76
m1 = 0.9 | – | 39.81
m1 = 0.99 | 0.00435 | –
m1 = 1 | – | 37.73
m1 = 1.1 | – | 35.61
m1 = 1.19 | 0.00512 | –
m1 = 1.2 | – | 34.86

O [water] + CCC(=O)[O-].CCCCCCCCCCCC[NH2+]C1O[C@H](CO)[C@@H](O[C@@H]2O[C@H](CO)[C@H](O)[C@H](O)[C@H]2O)[C@H](O)[C@H]1O
[2], 323.15 K, m2 = 0
Conditions | electrical conductivity [S/m] | surface tension liquid-gas [mN/m]
– | 0.0001534 | 68.57

O [water] + CCCCCC(=O)[O-].CCCCCCCCCCCC[NH2+]C1O[C@H](CO)[C@@H](O[C@@H]2O[C@H](CO)[C@H](O)[C@H](O)[C@H]2O)[C@H](O)[C@H]1O
[2], 323.15 K, m2 = 0
Conditions | electrical conductivity [S/m] | surface tension liquid-gas [mN/m]
– | 0.000255 | 68.72

O [water] + CCCCCCCCCCCC[NH2+]C1O[C@H](CO)[C@@H](O[C@@H]2O[C@H](CO)[C@H](O)[C@H](O)[C@H]2O)[C@H](O)[C@H]1O.CCCCCCCCCCCC[NH2+]C1O[C@H](CO)[C@@H](O[C@@H]2O[C@H](CO)[C@H](O)[C@H](O)[C@H]2O)[C@H](O)[C@H]1O.O=C([O-])CC(=O)[O-]
[2], m2 = 0
Conditions | surface tension liquid-gas [mN/m]
298.15 K | 71.76
323.15 K | 68.05

O [water] + CCCCCCCCCCCC[NH2+]C1O[C@H](CO)[C@@H](O[C@@H]2O[C@H](CO)[C@H](O)[C@H](O)[C@H]2O)[C@H](O)[C@H]1O.CCCCCCCCCCCC[NH2+]C1O[C@H](CO)[C@@H](O[C@@H]2O[C@H](CO)[C@H](O)[C@H](O)[C@H]2O)[C@H](O)[C@H]1O.O=C([O-])CCCCC(=O)[O-]
[2], m2 = 0
Conditions | surface tension liquid-gas [mN/m]
298.15 K | 72.71
323.15 K | 68.94

Reference: the NIST ThermoML archive (doi:10.1021/acs.jced.5b01057)
